Tests used:
[1] = biological target: Serine/threonine-protein kinase B-raf (Homo sapiens, UniProt P15056, V600E); experiment: Inhibition of B-Raf V600E mutant in human Malme-3M cells assessed as basal ERK phosphorylation; format: cell-based
[2] = Volume of distribution in mouse; format: ADME, organism-based; settings: in vivo
[3] = biological target: RAC-gamma serine/threonine-protein kinase (Homo sapiens) (UniProt Q9Y243); experiment: Inhibition of human AKT3 assessed as enzyme activity at 1 uM relative to control; design: scale not given: the % may be the effect or the level left
[4] = biological target: ALK tyrosine kinase receptor (Homo sapiens) (UniProt Q9UM73); experiment: Inhibition of human ALK assessed as enzyme activity at 1 uM relative to control; design: scale not given: the % may be the effect or the level left
[5] = biological target: Tyrosine-protein kinase ABL2 (Homo sapiens) (UniProt P42684); experiment: Inhibition of human Abl2 assessed as enzyme activity at 1 uM relative to control; design: scale not given: the % may be the effect or the level left
[6] = biological target: Serine/threonine-protein kinase BRSK1 (Homo sapiens) (UniProt Q8TDC3); experiment: Inhibition of human BrSK1 assessed as enzyme activity at 1 uM relative to control; design: scale not given: the % may be the effect or the level left
Sequence of Serine/threonine-protein kinase BRSK1 (Homo sapiens) (Q8TDC3 whole entry): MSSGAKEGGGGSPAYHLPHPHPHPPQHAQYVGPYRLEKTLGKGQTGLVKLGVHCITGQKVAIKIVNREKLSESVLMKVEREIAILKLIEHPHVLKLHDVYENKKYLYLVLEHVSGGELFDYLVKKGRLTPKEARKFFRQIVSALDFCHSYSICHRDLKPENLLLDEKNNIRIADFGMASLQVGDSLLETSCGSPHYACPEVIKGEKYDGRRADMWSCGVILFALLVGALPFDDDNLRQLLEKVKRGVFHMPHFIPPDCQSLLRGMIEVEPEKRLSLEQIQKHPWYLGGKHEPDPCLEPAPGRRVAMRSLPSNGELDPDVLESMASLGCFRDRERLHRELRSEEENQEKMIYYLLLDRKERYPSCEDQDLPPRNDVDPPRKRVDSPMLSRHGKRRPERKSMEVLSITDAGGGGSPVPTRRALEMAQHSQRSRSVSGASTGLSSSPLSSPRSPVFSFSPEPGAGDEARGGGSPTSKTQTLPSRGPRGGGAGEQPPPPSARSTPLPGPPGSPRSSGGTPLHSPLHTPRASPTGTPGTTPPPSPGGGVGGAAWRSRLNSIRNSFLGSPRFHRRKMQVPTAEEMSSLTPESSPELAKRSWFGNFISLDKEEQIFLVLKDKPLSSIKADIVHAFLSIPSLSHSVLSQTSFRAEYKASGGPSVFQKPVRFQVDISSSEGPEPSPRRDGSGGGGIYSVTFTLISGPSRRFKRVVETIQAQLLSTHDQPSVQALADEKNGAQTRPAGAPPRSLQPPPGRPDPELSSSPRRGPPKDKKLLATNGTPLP

[7] = biological target: Serine/threonine-protein kinase BRSK2 (Homo sapiens) (UniProt Q8IWQ3); experiment: Inhibition of human BrSK2 assessed as enzyme activity at 1 uM relative to control; design: scale not given: the % may be the effect or the level left
[8] = biological target: Calcium/calmodulin-dependent protein kinase type IV (Homo sapiens) (UniProt Q16566); experiment: Inhibition of human CAMK4 assessed as enzyme activity at 1 uM relative to control; design: scale not given: the % may be the effect or the level left
Sequence of Calcium/calmodulin-dependent protein kinase type IV (Homo sapiens) (Q16566 whole entry): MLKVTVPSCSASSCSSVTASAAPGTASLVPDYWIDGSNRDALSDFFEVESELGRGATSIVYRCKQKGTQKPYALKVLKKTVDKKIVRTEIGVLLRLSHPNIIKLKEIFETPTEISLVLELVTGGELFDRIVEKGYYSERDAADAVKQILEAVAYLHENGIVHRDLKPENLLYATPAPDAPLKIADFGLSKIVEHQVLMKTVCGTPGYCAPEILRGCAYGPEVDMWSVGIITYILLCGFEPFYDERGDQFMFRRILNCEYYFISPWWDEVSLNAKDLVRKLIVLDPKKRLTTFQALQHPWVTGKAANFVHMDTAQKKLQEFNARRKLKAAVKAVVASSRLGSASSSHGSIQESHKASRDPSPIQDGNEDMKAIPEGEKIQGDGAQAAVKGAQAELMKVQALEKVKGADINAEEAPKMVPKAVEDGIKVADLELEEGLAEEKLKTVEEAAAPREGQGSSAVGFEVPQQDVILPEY

[9] = biological target: Cyclin-dependent kinase 1/cyclin B1 (Homo sapiens) (UniProt P06493+P14635); experiment: Inhibition of human CDK1/cyclinB assessed as enzyme activity at 1 uM relative to control; format: protein-complex assay; design: scale not given: the % may be the effect or the level left
[10] = biological target: Cyclin-dependent kinase 2/cyclin E1 (Homo sapiens) (UniProt P24864+P24941); experiment: Inhibition of human CDK2/cyclinE assessed as enzyme activity at 1 uM relative to control; format: protein-complex assay; design: scale not given: the % may be the effect or the level left
[11] = biological target: T1, Cyclin-dependent kinase 5/CDK5 activator 1 (Homo sapiens) (UniProt Q00535+Q15078); experiment: Inhibition of human CDK5/p25 assessed as enzyme activity at 1 uM relative to control; format: protein-complex assay; design: scale not given: the % may be the effect or the level left
T1 sequence (Q00535 whole entry): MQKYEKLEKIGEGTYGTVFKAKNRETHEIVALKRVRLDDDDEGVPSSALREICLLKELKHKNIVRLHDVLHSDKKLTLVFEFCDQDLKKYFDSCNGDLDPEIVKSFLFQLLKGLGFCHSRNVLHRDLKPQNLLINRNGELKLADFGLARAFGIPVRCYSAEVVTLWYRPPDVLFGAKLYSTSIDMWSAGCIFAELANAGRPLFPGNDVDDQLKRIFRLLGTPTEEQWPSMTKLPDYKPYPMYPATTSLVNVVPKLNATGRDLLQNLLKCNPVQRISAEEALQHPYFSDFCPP
T1 sequence (Q15078 99-307 partner limits assumed): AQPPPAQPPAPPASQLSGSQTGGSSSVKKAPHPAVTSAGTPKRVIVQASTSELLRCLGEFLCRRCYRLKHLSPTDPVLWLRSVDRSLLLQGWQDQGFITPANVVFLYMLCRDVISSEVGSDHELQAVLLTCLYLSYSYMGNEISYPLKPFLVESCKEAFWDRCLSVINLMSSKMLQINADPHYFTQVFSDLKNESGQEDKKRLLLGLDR

[12] = biological target: T1, Cyclin-dependent kinase 5/CDK5 activator 1 (Homo sapiens); experiment: Inhibition of human CDK5/p35 assessed as enzyme activity at 1 uM relative to control; format: protein-complex assay; design: scale not given: the % may be the effect or the level left
[13] = biological target: Casein kinase I isoform gamma-1 (Homo sapiens) (UniProt Q9HCP0); experiment: Inhibition of human CK1gamma1 assessed as enzyme activity at 1 uM relative to control; design: scale not given: the % may be the effect or the level left
[14] = biological target: Dual specificity protein kinase CLK2 (Homo sapiens) (UniProt P49760); experiment: Inhibition of human CLK2 assessed as enzyme activity at 1 uM relative to control; design: scale not given: the % may be the effect or the level left
[15] = biological target: Ephrin type-A receptor 2 (Homo sapiens) (UniProt P29317); experiment: Inhibition of human EphA2 assessed as enzyme activity at 1 uM relative to control; design: scale not given: the % may be the effect or the level left
[16] = biological target: Tyrosine-protein kinase Tec (Homo sapiens) (UniProt P42680); experiment: Inhibition of human activated TEC assessed as enzyme activity at 1 uM relative to control; design: scale not given: the % may be the effect or the level left
[17] = biological target: Mitogen-activated protein kinase 12 (Homo sapiens) (UniProt P53778); experiment: Inhibition of human p38gamma assessed as enzyme activity at 1 uM relative to control; design: scale not given: the % may be the effect or the level left
[18] = biological target: Ribosomal protein S6 kinase beta-1 (Homo sapiens) (UniProt P23443); experiment: Inhibition of human p70S6K assessed as enzyme activity at 1 uM relative to control; design: scale not given: the % may be the effect or the level left
[19] = biological target: Ribosomal protein S6 kinase alpha-5 (Homo sapiens) (UniProt O75582); experiment: Inhibition of human MSK1 assessed as enzyme activity at 1 uM relative to control; design: scale not given: the % may be the effect or the level left
Sequence of Ribosomal protein S6 kinase alpha-5 (Homo sapiens) (O75582 whole entry, looked up): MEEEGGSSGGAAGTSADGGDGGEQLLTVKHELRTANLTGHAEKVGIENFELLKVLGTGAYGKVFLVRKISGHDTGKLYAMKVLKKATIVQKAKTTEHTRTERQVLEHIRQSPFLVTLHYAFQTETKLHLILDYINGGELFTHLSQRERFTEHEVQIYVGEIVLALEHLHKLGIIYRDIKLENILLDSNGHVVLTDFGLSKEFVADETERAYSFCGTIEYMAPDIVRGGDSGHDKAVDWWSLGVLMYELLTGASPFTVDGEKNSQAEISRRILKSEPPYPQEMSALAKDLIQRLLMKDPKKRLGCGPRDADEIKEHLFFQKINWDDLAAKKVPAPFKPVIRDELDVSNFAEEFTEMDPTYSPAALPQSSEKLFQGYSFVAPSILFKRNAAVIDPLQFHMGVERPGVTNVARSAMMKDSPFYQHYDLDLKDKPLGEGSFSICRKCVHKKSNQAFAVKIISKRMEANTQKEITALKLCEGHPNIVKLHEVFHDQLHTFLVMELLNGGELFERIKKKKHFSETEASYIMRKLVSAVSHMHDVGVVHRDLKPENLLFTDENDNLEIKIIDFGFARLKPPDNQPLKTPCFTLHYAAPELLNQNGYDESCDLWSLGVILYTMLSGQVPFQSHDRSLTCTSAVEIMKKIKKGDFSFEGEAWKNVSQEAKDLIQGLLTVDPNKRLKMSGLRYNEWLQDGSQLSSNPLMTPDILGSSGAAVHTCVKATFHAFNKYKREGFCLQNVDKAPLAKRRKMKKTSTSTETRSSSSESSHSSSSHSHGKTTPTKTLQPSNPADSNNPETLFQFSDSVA

[20] = biological target: SRSF protein kinase 3 (Homo sapiens) (UniProt Q9UPE1); experiment: Inhibition of human MSSK1 assessed as enzyme activity at 1 uM relative to control; design: scale not given: the % may be the effect or the level left
[21] = biological target: Serine/threonine-protein kinase Nek3 (Homo sapiens) (UniProt P51956); experiment: Inhibition of human NEK3 assessed as enzyme activity at 1 uM relative to control; design: scale not given: the % may be the effect or the level left
[22] = biological target: PAS domain-containing serine/threonine-protein kinase (Homo sapiens) (UniProt Q96RG2); experiment: Inhibition of human PASK assessed as enzyme activity at 1 uM relative to control; design: scale not given: the % may be the effect or the level left
Sequence of PAS domain-containing serine/threonine-protein kinase (Homo sapiens) (Q96RG2 whole entry, the tested form may be a part): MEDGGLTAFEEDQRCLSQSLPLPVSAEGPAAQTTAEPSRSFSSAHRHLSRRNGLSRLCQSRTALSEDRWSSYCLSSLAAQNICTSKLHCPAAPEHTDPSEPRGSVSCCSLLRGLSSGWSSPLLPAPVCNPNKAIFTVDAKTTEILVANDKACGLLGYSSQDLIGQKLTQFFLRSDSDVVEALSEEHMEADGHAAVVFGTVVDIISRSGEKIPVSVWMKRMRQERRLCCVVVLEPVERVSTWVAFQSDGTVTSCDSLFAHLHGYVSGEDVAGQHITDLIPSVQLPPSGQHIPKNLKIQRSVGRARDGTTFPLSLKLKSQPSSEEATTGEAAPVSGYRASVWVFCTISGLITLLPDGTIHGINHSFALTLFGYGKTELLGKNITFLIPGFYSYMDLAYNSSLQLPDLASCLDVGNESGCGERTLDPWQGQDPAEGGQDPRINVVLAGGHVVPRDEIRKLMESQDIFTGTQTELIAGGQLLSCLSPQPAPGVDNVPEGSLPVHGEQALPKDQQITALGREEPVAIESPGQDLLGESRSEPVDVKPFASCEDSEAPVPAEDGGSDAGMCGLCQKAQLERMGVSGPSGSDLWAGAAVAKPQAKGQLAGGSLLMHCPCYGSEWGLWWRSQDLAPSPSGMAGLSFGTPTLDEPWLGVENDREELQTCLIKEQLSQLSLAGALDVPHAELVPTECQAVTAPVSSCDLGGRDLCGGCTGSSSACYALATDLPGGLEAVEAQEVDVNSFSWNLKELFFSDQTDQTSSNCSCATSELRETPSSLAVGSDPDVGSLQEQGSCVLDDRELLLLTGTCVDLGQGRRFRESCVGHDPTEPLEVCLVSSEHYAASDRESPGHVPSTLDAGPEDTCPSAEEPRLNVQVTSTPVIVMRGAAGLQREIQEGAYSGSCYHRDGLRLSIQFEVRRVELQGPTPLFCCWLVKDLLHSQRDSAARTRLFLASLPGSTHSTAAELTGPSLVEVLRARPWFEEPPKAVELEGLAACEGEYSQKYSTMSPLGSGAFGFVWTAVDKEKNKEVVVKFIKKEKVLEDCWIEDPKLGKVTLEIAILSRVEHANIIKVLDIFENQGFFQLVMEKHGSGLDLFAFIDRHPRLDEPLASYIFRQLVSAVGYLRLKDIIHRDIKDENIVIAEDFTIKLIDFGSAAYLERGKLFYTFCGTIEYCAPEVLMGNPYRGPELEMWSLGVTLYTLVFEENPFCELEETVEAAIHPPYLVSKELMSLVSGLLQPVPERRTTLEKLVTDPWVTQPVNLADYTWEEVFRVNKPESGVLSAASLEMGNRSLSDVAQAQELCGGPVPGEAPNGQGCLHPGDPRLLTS

[23] = biological target: 3-phosphoinositide-dependent protein kinase 1 (Homo sapiens) (UniProt O15530); experiment: Inhibition of human PDK1 assessed as enzyme activity at 1 uM relative to control; design: scale not given: the % may be the effect or the level left
[24] = biological target: Protein kinase C beta type (Homo sapiens) (UniProt P05771); experiment: Inhibition of human PKCbeta2 assessed as enzyme activity at 1 uM relative to control; design: scale not given: the % may be the effect or the level left
[25] = biological target: Protein kinase C gamma type (Homo sapiens) (UniProt P05129); experiment: Inhibition of human PKCgamma assessed as enzyme activity at 1 uM relative to control; design: scale not given: the % may be the effect or the level left
[26] = biological target: Serine/threonine-protein kinase D1 (Homo sapiens) (UniProt Q15139); experiment: Inhibition of human PKD1 assessed as enzyme activity at 1 uM relative to control; design: scale not given: the % may be the effect or the level left
[27] = biological target: Serine/threonine-protein kinase D2 (Homo sapiens) (UniProt Q9BZL6); experiment: Inhibition of human PKD2 assessed as enzyme activity at 1 uM relative to control; design: scale not given: the % may be the effect or the level left
[28] = biological target: Serine/threonine-protein kinase pim-2 (Homo sapiens) (UniProt Q9P1W9); experiment: Inhibition of human Pim-2 assessed as enzyme activity at 1 uM relative to control; design: scale not given: the % may be the effect or the level left
Sequence of Serine/threonine-protein kinase pim-2 (Homo sapiens) (Q9P1W9 whole entry, looked up): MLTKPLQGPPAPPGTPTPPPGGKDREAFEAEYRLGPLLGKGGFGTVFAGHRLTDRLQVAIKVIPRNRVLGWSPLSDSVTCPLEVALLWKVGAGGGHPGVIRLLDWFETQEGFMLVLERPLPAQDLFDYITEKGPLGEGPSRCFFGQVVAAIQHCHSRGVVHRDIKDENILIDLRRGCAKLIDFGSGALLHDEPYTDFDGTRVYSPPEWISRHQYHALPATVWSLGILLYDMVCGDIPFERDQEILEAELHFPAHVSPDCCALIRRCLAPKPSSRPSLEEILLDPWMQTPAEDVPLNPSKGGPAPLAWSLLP

[29] = biological target: Serine/threonine-protein kinase pim-3 (Homo sapiens) (UniProt Q86V86); experiment: Inhibition of human Pim-3 assessed as enzyme activity at 1 uM relative to control; design: scale not given: the % may be the effect or the level left
[30] = biological target: Receptor-interacting serine/threonine-protein kinase 2 (Homo sapiens) (UniProt O43353); experiment: Inhibition of human RIPK2 assessed as enzyme activity at 1 uM relative to control; design: scale not given: the % may be the effect or the level left
[31] = biological target: Tyrosine-protein kinase receptor TYRO3 (Homo sapiens) (UniProt Q06418); experiment: Inhibition of human Rse assessed as enzyme activity at 1 uM relative to control; design: scale not given: the % may be the effect or the level left
[32] = biological target: Serine/threonine-protein kinase Sgk2 (Homo sapiens) (UniProt Q9HBY8); experiment: Inhibition of human SGK2 assessed as enzyme activity at 1 uM relative to control; design: scale not given: the % may be the effect or the level left
[33] = biological target: SRSF protein kinase 2 (Homo sapiens) (UniProt P78362); experiment: Inhibition of human SRPK2 assessed as enzyme activity at 1 uM relative to control; design: scale not given: the % may be the effect or the level left
[34] = biological target: Ephrin type-A receptor 3 (Homo sapiens) (UniProt P29320); experiment: Inhibition of human EphA3 assessed as enzyme activity at 1 uM relative to control; design: scale not given: the % may be the effect or the level left
[35] = biological target: Ephrin type-B receptor 2 (Homo sapiens) (UniProt P29323); experiment: Inhibition of human EphB2 assessed as enzyme activity at 1 uM relative to control; design: scale not given: the % may be the effect or the level left
[36] = biological target: Fibroblast growth factor receptor 2 (Homo sapiens) (UniProt P21802); experiment: Inhibition of human FGFR2 assessed as enzyme activity at 1 uM relative to control; design: scale not given: the % may be the effect or the level left
[37] = biological target: Glycogen synthase kinase-3 alpha (Homo sapiens) (UniProt P49840); experiment: Inhibition of human GSK3alpha assessed as enzyme activity at 1 uM relative to control; design: scale not given: the % may be the effect or the level left
Sequence of Glycogen synthase kinase-3 alpha (Homo sapiens) (P49840 2-483 limits assumed): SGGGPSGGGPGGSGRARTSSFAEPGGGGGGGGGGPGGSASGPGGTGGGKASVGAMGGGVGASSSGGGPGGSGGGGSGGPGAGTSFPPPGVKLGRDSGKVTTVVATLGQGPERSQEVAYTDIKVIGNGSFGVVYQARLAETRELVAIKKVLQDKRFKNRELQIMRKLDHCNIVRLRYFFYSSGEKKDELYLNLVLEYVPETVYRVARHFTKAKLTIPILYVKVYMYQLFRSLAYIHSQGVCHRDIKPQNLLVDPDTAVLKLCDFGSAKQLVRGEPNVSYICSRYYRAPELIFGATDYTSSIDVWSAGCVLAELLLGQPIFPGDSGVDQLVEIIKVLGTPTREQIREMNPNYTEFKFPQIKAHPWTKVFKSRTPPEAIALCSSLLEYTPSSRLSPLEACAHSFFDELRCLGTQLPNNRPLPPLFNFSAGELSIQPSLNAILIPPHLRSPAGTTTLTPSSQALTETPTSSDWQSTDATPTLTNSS

[38] = biological target: Insulin receptor (Homo sapiens) (UniProt P06213); experiment: Inhibition of human activated IR assessed as enzyme activity at 1 uM relative to control; design: scale not given: the % may be the effect or the level left
[39] = biological target: Tyrosine-protein kinase Lyn (Homo sapiens) (UniProt P07948); experiment: Inhibition of human Lyn assessed as enzyme activity at 1 uM relative to control; design: scale not given: the % may be the effect or the level left

CCCS(=O)(=O)Nc1cccc(Nc2ccc3ncn(C)c(=O)c3c2)c1C#N
IC50 [1]: 6 nM | Vd [2]: 0.25 L/kg | Activity [3]: 109% | Activity [4]: 104% | Activity [5]: 108% | Activity [6]: 102% | Activity [7]: 100% | Activity [8]: 98% | Activity [9]: 103% | Activity [10]: 106% | Activity [11]: 102% | Activity [12]: 114% | Activity [13]: 104% | Activity [14]: 110% | Activity [15]: 99.5% | Activity [16]: 102% | Activity [17]: 106% | Activity [18]: 112% | Activity [19]: 132% | Activity [20]: 115% | Activity [21]: 112% | Activity [22]: 110% | Activity [23]: 105% | Activity [24]: 100% | Activity [25]: 101% | Activity [26]: 127% | Activity [27]: 95.5% | Activity [28]: 108% | Activity [29]: 97% | Activity [30]: 98% | Activity [31]: 97% | Activity [32]: 109% | Activity [33]: 96.5% | Activity [34]: 108% | Activity [35]: 94.5% | Activity [36]: 99.5% | Activity [37]: 122% | Activity [38]: 95% | Activity [39]: 98%
